Results from ChEMBL document CHEMBL1148228, “Synthesis of N tau-arylhistidine derivatives via direct N-arylation” (Bioorg Med Chem Lett, 2004).

Organism: Oryctolagus cuniculus
Experiment: Inhibitory concentration of compound against antigen binding site in immunized rabbits
Assay type: functional, organism-based

CC(=O)NC(Cc1cn(-c2ccc(Br)cc2)cn1)C(=O)O (stereo unspecified)
IC50: ~1000 nM
